Measured values as given in US20230234991A1, “SELF-ASSEMBLED PEPTIDE NANORODS AND USES THEREOF” (TRANSFERT PLUS, SOCIÉTÉ EN COMMANDITE, priority 2020, published 2023).
Entries after “also recorded” stand apart in the source; their conditions may differ.

Experiments:
TLR2 = target: T1, TLR2 (Mus musculus, UniProt Q9QUN7); assay: TLR-2 stimulation, SEAP activity in HEK-Blue mTLR2 cells; assay type: cell-based
T1 construct: host or cells: HEK293 (HEK-Blue mTLR2)
Experimental: TLR-2 stimulation. HEK293 cells stably co-transfected with mTLR2 and SEAP (HEK-Blue mTLR2 cells, InvivoGen) were cultivated in Dulbecco's Modified Eagle's Medium supplemented with 4.5 g/I glucose, 10% (v/v) fetal bovine serum, 100 U/ml penicillin, […], […], 2 mM L-glutamine. At 50-80% confluency, cells were seeded in Hek-Blue detection medium (InvivoGen) at a density of 50,000 cells/well in a 96-well plate containing NRs and controls. After 16 h incubation at 37° C. in 5% CO2, absorbance was monitored at 630 nm.

M2e = system: M2e; parameters: species or system BALB/c mice; settings: mouse, in vivo, sc
[1] = system: influenza virus A/PuertoRico/8/34; parameters: species or system BALB/c mice; settings: mouse, in vivo

T1 sequence (Q9QUN7 25-784): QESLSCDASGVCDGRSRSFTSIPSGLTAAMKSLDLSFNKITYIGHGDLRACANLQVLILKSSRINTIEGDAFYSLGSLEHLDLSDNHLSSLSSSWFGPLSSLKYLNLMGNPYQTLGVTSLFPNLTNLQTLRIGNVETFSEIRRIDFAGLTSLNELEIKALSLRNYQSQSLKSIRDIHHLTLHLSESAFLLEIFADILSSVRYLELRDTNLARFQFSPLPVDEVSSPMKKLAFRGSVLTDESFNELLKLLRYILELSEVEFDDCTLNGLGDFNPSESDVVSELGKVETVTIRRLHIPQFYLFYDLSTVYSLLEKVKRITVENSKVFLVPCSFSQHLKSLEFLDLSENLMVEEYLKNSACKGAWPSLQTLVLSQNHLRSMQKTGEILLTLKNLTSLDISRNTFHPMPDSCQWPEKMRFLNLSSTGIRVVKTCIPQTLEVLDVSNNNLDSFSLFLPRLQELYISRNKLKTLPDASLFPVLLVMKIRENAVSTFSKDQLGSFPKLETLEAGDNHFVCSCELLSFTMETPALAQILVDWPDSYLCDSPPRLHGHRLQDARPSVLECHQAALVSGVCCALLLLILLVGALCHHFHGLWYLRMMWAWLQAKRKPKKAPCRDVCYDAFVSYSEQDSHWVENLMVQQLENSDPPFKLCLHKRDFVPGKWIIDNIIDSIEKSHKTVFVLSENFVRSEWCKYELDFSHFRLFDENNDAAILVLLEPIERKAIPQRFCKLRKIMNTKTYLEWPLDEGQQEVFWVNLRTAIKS

Which SEAP activity (TLR2) does the source give for SLLTEVETPIRNEWGSRSNGSSD [Peptide M2e] here?
The SEAP activity was “no activity was measured”.

What about the “M2e-specific antibody response (IgG)” value (M2e) of the same sequence?
Its value is “did not raise any significant level of epitope-specific IgG; also recorded: very low antibody response; also recorded: significant antibody titer”.

What about the mortality [1] of the same sequence?
Its mortality is 100%.
